Earlier results in patent US11147268B2, “Food contact surface sanitizing liquid” (THE CLOROX COMPANY, priority 2015, dated 2021).

Row | Vapor Pressure mmHg @ 20° C. [mmHg] | Vapor Pressure mmHg (@25° C.) | SMILES
1 | 43 | – | CCO [Ethanol]
2 | – | 0.021 (@25° C.) mmHg | CC(CO)CO [2-methyl 1,3 propanediol]
3 | 0.07 | – | CC(O)CO (centres unmarked) [1,2, propylene glycol]

Second part, the molecule before the results:

Row | SMILES | Vapor Pressure mmHg @ 20° C. [mmHg] | Vapor Pressure mmHg (@25° C.)
4 | OCCCO [1,3 propanediol] | 0.8 | –
5 | CC(C)O [Isopropyl alcohol] | 33 | –
